Measured values as given in US20260007613A1, “LONG-ACTING LOW-TOXICITY NOVEL CATIONIC LIPID COMPOUNDS AND COMPOSITION THEREOF” (BEIJING YOUCAREKECHUANG PHARMACEUTICAL TECHNOLOGY CO., LTD., priority 2023, published 2026).
“And” between values parts separate entries of the source, which are not always exact repeats. Equal entries are not always repeated.

Columns and labels:
[1] = Particle size and polydispersity index (PDI) of lipid nanoparticles by dynamic light scattering; type: physicochemical; settings: LNP formulation prepared from the cationic lipid, 25° C.
Method: The particle size and polydispersity index (PDI) were determined by dynamic light scattering using Malvern laser particle size analyzer.
10 μL of the liposome solution was weighed, diluted to 1 mL with RNase-free deionized water, and added to the sample pool. Each sample was measured in triplicate. The measurement conditions were: […] scattering angle, and 25° C.

[2] = system: female BALB/C mice; experiment: Live imaging in mice: protein expression of Fluc-mRNA delivered by LNP formulations; type: in vivo; settings: for average radiation intensity, times that of ALC-0315: comparator ALC-0315; for average radiation intensity, times that of HHMA: comparator HHMA; for average radiation intensity, times that of SM-102: comparator SM-102; for expression of mRNA in mice, times that of YK-302: comparator YK-302; for expression amount, times that of YK-309: comparator YK-309; for expression amount, times that of YK-313: comparator YK-313; for expression amount, times that of YK-321: comparator YK-321; for average radiation intensity, times that of compound 21: comparator compound 21; for average radiation intensity, times that of compound 23: comparator compound 23
Summary of the method: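 Female BALB/C mice (4-6 weeks, 17-19 g) received LNP-formulated Fluc-mRNA […] intramuscularly. At 6 h, 24 h, 48 h and 7 d, luciferase substrate given intraperitoneally, and after 5 min average radiance measured by IVIS whole-body imaging.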

[3] = system: liver; experiment: Distribution of liposomes in mice: protein expression in the liver (live imaging); type: in vivo; settings: at 6 h
Method: The LNP formulation containing […] Fluc-mRNA was injected intramuscularly into female BALB/C mice aged 4 to 6 weeks old and weighed 17 to 19 g, and the mice were intraperitoneally injected with fluorescent imaging substrate at specific time points after administration (6 h, 24 h, 48 h and 7 d), where the mice were free to move for 5 minutes, and then the average radiation intensity (corresponding to fluorescence expression intensity) of the protein expression of the mRNA carried by the LNP in the mice was detected by the IVIS Spectrum small animal live imaging device.
At 24 h, the LNP formulations prepared from all compounds had been metabolized in the liver and had no protein expression.

[4] = system: 293T cells; experiment: Fluorescent detection of Fluc-mRNA (cell transfection efficiency of LNP formulations); type: cell-based
Summary of the method: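 293T cells were seeded at 10,000/well and cultured overnight, then given LNP carrying […] Fluc-mRNA (cationic:neutral:structured:polymer-conjugated lipid 49:10:39.5:1.5 molar) for 24 h. Luminescence was developed with […] and imaged on IVIS.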

[5] = system: 293T cells; experiment: Cell survival rate determination (CCK-8); type: cell-based
Summary of the method: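 293T cells plated at 10,000/well (96-well), adhered overnight, then exposed 24 h to Fluc-mRNA LNP (cationic:neutral:structured:PEG-lipid 49:10:39.5:1.5) or Lipofectamine 3000. Viability by CCK-8, 1 h incubation, absorbance at 450 nm.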

## CCCCCCCCC(CCCCCCCC)COC(=O)CCCCCN(CCCCCC(=O)OCC(CCCCCCCC)CCCCCCCC)C[C@H](O)CN(C)CCO [YK-305, (R)-Bis(2-octyldecyl)-6,6′-((2-hydroxy-3-((2-hydroxyethyl)(methyl)amino)propyl)azanediyl)dihexanoate]
[1]
  PDI (%): 10.7%
  Particle size (nm): 191 nm
[2]; 6 h
  average radiation intensity, times that of ALC-0315: 10.70 times
  average radiation intensity, times that of HHMA: 14.19 times
  average radiation intensity, times that of SM-102: 13.18 times
  expression of mRNA in mice, times that of YK-302: 633.70 times
  expression amount, times that of YK-309: 140.67 times
  expression amount, times that of YK-313: 20.89 times
  expression amount, times that of YK-321: 17.92 times
  average radiation intensity, times that of compound 21: 15.14 times
  average radiation intensity, times that of compound 23: 15.68 times
[2]; 6 h after intramuscular injection
  average radiation intensity: 9239340
[2]; 24 h
  average radiation intensity, times that of ALC-0315: 14.82 times
  average radiation intensity, times that of HHMA: 23.54 times
  average radiation intensity, times that of SM-102: 23.44 times
  expression of mRNA in mice, times that of YK-302: 713.70 times
  expression amount, times that of YK-309: 167.86 times
  expression amount, times that of YK-313: 27.04 times
  expression amount, times that of YK-321: 27.89 times
  average radiation intensity, times that of compound 21: 25.70 times
  average radiation intensity, times that of compound 23: 27.01 times
[2]; 24 h after intramuscular injection
  average radiation intensity: 2823400
[2]; 48 h
  average radiation intensity, times that of ALC-0315: 26.32 times
  average radiation intensity, times that of HHMA: 32.18 times
  average radiation intensity, times that of SM-102: 32.19 times
  expression amount, times that of YK-309: 159.93 times and ~160 times
  expression amount, times that of YK-313: 40.99 times
  expression amount, times that of YK-321: 28.65 times
  average radiation intensity, times that of compound 21: 33.82 times
  average radiation intensity, times that of compound 23: 31.63 times
[2]; 48 h after intramuscular injection
  average radiation intensity: 1047720
[2]; 7 d
  average radiation intensity, times that of ALC-0315: 18.02 times
  average radiation intensity, times that of HHMA: 21.63 times
  average radiation intensity, times that of SM-102: 19.18 times
  expression amount, times that of YK-309: 101.13 times and ~100 times
  expression amount, times that of YK-313: 39.26 times
  expression amount, times that of YK-321: 19.29 times
  average radiation intensity, times that of compound 21: 19.71 times
  average radiation intensity, times that of compound 23: 20.35 times
[2]; 7 d after intramuscular injection
  average radiation intensity: 127015
[3]
  expression amount in the liver compared with ALC-0315 and SM-102: reduced
[3]; intramuscular injection
  protein expression in the liver: had protein expression in the liver
[4]; LNP formulation of Fluc-mRNA, 96-well plate, 24 hours
  Relative light unit (RLU): 27408734 RLU
[4]; RLU of YK-305 / RLU of the lipid of the line
  Multiples (YK-305): 1.00
[4]; RLU of YK-310 / RLU of the lipid of the line
  Multiples (YK-310): 0.94
[4]; RLU of YK-312 / RLU of the lipid of the line
  Multiples (YK-312): 0.74
[4]; RLU of YK-318 / RLU of the lipid of the line, Tables 5, 7, 11
  Multiples (YK-318): 0.41
[4]; RLU of YK-319 / RLU of the lipid of the line, Tables 5, 7, 11
  Multiples (YK-319): 0.89
[4]; RLU of the lipid / RLU of SM-102, times that of SM-102
  Ratio relative to SM-102: 17.09
[4]; comparator ALC-0315
  cell transfection efficiency, times that of ALC-0315: 13.48 times
[4]; comparator HHMA
  cell transfection efficiency, times that of HHMA: 13.66 times
[4]; comparator Lipofectamine 3000
  cell transfection efficiency, times that of Lipofectamine 3000: 23.12 times
[4]; comparator YK-009
  cell transfection efficiency, times that of YK-009: 5.35 times
[4]; comparator YK-301
  cell transfection efficiency, times that of YK-301: 32.53 times
[4]; comparator YK-303
  cell transfection efficiency, times that of YK-303: 43.76 times
[4]; comparator YK-306
  cell transfection efficiency, times that of YK-306: 12.47 times
[4]; comparator YK-307
  cell transfection efficiency, times that of YK-307: 6.01 times
[4]; comparator YK-308
  cell transfection efficiency, times that of YK-308: 5.44 times
[4]; comparator YK-309
  cell transfection efficiency, times that of YK-309: ~210 times and 218.62 times and ~200 times
[4]; comparator YK-311
  cell transfection efficiency, times that of YK-311: 13.96 times
[4]; comparator YK-313
  cell transfection efficiency, times that of YK-313: 31.63 times
[4]; comparator YK-314
  cell transfection efficiency, times that of YK-314: 50.07 times
[4]; comparator YK-315
  cell transfection efficiency, times that of YK-315: 17.27 times
[4]; comparator YK-316
  cell transfection efficiency, times that of YK-316: 5.70 times
[4]; comparator YK-317
  cell transfection efficiency, times that of YK-317: 7.60 times
[4]; comparator YK-320
  cell transfection efficiency, times that of YK-320: 10.14 times
[4]; comparator YK-321
  cell transfection efficiency, times that of YK-321: 19.53 times and ~20 times
[4]; comparator compound 21
  cell transfection efficiency, times that of compound 21: 19.14 times
[4]; comparator compound 23
  cell transfection efficiency, times that of compound 23: 20.21 times
[5]; LNP formulation of Fluc-mRNA, 24 hours, CCK-8
  Cell survival rate (%): 82.18%
[5]; difference of survival rates, comparator ALC-0315
  cell survival rate higher than ALC-0315: 31.15% and ~30%
[5]; difference of survival rates, comparator HHMA
  cell survival rate higher than HHMA: 15.71% and ~15%
[5]; difference of survival rates, comparator Lipofectamine 3000
  cell survival rate higher than Lipofectamine 3000: 57.17%
[5]; difference of survival rates, comparator SM-102
  cell survival rate higher than SM-102: 12.73% and ~12%
[5]; difference of survival rates, comparator YK-301
  cell survival rate higher than YK-301: 29.22%
[5]; difference of survival rates, comparator YK-302
  cell survival rate higher than YK-302: 65.75% and ~65% and ~50%
[5]; difference of survival rates, comparator YK-303
  cell survival rate higher than YK-303: 18.86%
[5]; difference of survival rates, comparator YK-304
  cell survival rate higher than YK-304: 48.02%
[5]; difference of survival rates, comparator YK-306
  cell survival rate higher than YK-306: 39.99%
[5]; difference of survival rates, comparator YK-307
  cell survival rate higher than YK-307: 21.04%
[5]; difference of survival rates, comparator YK-308
  cell survival rate higher than YK-308: 11.19%
[5]; difference of survival rates, comparator YK-309
  cell survival rate higher than YK-309: 50.57%
[5]; difference of survival rates, comparator YK-311
  cell survival rate higher than YK-311: 12.12%
[5]; difference of survival rates, comparator YK-313
  cell survival rate higher than YK-313: 13.25%
[5]; difference of survival rates, comparator YK-314
  cell survival rate higher than YK-314: 14.30%
[5]; difference of survival rates, comparator YK-315
  cell survival rate higher than YK-315: 10.90%
[5]; difference of survival rates, comparator YK-316
  cell survival rate higher than YK-316: 11.65%
[5]; difference of survival rates, comparator YK-317
  cell survival rate higher than YK-317: 23.00% and ~20%
[5]; difference of survival rates, comparator YK-320
  cell survival rate higher than YK-320: 11.110%
[5]; difference of survival rates, comparator YK-321
  cell survival rate higher than YK-321: 9.84%
[5]; difference of survival rates, comparator compound 21
  cell survival rate higher than compound 21: 11.97%
[5]; difference of survival rates, comparator compound 23
  cell survival rate higher than compound 23: 10.68%
